Reference: US10837015B2, “Targeting the glutamine to pyruvate pathway for treatment of oncogenic Kras-associated cancer” (Dana-Farber Cancer Institute, Inc., priority 2012, dated 2020)

What was measured:
PDAC cells [1] = assay: Clonogenic assay; assay type: cell-based, human; conditions: for rescue of clonogenic growth upon Gln deprivation: Gln-free medium supplemented with metabolite, FIG. 5, 22, 26, 29; for sensitivity of clonogenic growth upon Kras knockdown: 8988T cells expressing shKras; for sensitivity of clonogenic growth upon Kras knockdown / clonogenic growth: FIG. 34; for clonogenic growth: 8988T cells, control shRNA
Procedure: Cells were plated in 6-well plates at 300 cells per well in 2 mL of media. Cell culture media was not changed throughout the course of the experiment. After 7-10 days, colonies were fixed in 80% methanol and stained with 0.2% crystal violet.

[2] = tested on: PDAC cells (8988T, Panc1); assay: Sensitization of PDAC cells to ROS / cell viability with GLS inhibitors (Cell Titer Glo); assay type: cell-based, human; conditions: for relative cell viability (growth suppressive effect): 8988T or Panc1 cells, GLS inhibitor alone, FIG. 36; for relative cell viability, GLS inhibitor combined with H2O2: 8988T, Panc1, 968 or BPTES (100 nM) with increasing H2O2, FIG. 37, 38
Procedure: PDAC cell lines were plated into 96-well plates at 10^3 cells/well in 200 μL of growth medium. The following day, growth medium was replaced with that containing GLS inhibitors and/or H2O2. Parallel plates were analyzed at 3, 6 and 9 days by Cell Titer Glo analysis (Promega), per the manufacturer's instruction. […] BPTES was a kind gift from Jaime Escobedo (Forma Therapeutics, Watertown, Mass.).

PDAC cells [3] = assay: Cell proliferation assay (crystal violet); assay type: cell-based, human; conditions: for PDAC growth (relative growth): 8988T cells treated with inhibitor, FIG. 7A/7B
Procedure: (§1) Cells were plated in 24-well plates at 2,000 cells per well in 0.5 mL of media. To deprive Gln, cells were plated in complete culture medium (10 mM glucose and 2 mM Gln) which was exchanged with Gln-free culture medium supplemented with 10% dFBS the following day. Cell culture media was not changed throughout the course of the experiment. At the indicated time points, cells were fixed in 10% formalin and stained with 0.1% crystal violet. Dye was extracted with 10% acetic acid and the relative proliferation was determined by OD at 595 nm.

[4] = tested on: HPDE (non-transformed human pancreatic ductal epithelial cells); assay: Cell proliferation assay, non-transformed pancreatic ductal cells; assay type: cell-based; conditions: FIG. 30A/30B
Procedure: as §1

[5] = tested on: IMR90 (human diploid fibroblasts); assay: Cell proliferation assay, diploid fibroblasts; assay type: cell-based; conditions: FIG. 30A/30B
Procedure: as §1

8988T cells = assay: ROS quantification (DCFDA assay, flow cytometry); assay type: cell-based, human
Procedure: The DCFDA assay was performed 24 hr after supplementing Gln-free media with either OAA (4 mM) or dimethyl malate (4 mM). Cells were incubated with 5 μM 2′,7′-dichlorodihydrofluorescein diacetate (DCFDA, Invitrogen) for 30 min. Excess DCFDA was removed by washing the cells twice with PBS, and labeled cells were then trypsinized, rinsed, and resuspended in PBS. Oxidation of DCFDA to the highly fluorescent 2′,7′-dichloro-fluorescein (DCF) is proportionate to ROS generation and was analyzed by flow cytometry.

COC(=O)CCC(=O)C(=O)OC [dimethyl αKG]
rescue of clonogenic growth upon Gln deprivation (PDAC cells [1]): did not restore growth

O=C(Cc1ccccc1)Nc1nnc(CCSCCc2nnc(NC(=O)Cc3ccccc3)s2)s1 [BPTES]
relative cell viability (growth suppressive effect) [2]: growth suppressive effect | relative cell viability, GLS inhibitor combined with H2O2 [2]: dramatically augmented

CN(C)c1ccc(C2Nc3ccc4ccccc4c3C3=C2C(=O)CC(C)(C)C3)cc1Br (stereo not shown) [compound 968]
relative cell viability (growth suppressive effect) [2]: growth suppressive effect | relative cell viability, GLS inhibitor combined with H2O2 [2]: dramatically augmented

N[C@@H](CCC(=O)N[C@@H](CS)C(=O)NCC(=O)O)C(=O)O [GSH, reduced glutathione]
rescue of clonogenic growth upon Gln deprivation (PDAC cells [1]): dramatically rescued the clonogenic survival

O=C(O[C@@H]1Cc2c(O)cc(O)cc2O[C@@H]1c1cc(O)c(O)c(O)c1)c1cc(O)c(O)c(O)c1 [EGCG, Epigallocatechin Gallate]
PDAC growth (relative growth) (PDAC cells [3]): little effect | growth (relative growth) of HPDE cells [4]: significantly sensitive | sensitivity of clonogenic growth upon Kras knockdown (PDAC cells [1]): sensitive | clonogenic growth (PDAC cells [1]): minimal effects

NOCC(=O)O [AOA, aminooxyacetate]
PDAC growth (relative growth) (PDAC cells [3]): robustly inhibited the growth | growth (relative growth) of HPDE cells [4]: no significant effect on growth | growth (relative growth) of IMR90 cells [5]: no significant effect on growth | sensitivity of clonogenic growth upon Kras knockdown (PDAC cells [1]): significantly more resistant | clonogenic growth (PDAC cells [1]): significantly inhibited clonogenic growth

COC(=O)CC(O)C(=O)OC (stereo not shown) [dimethyl-malate]
rescue of PDAC cell growth upon GOT1 knockdown (PDAC cells [3]; 8988T cells expressing shGOT1, 4 mM supplement, FIG. 28): partially rescue PDAC cell growth | rescue of cell proliferation upon Gln deprivation (PDAC cells [3]; Gln-free medium supplemented with metabolite, FIG. 6, 27): partially rescue PDAC cell growth | ROS levels (DCFDA signal) upon GOT1 knockdown (8988T cells; 8988T cells expressing shGOT1, medium supplementation): rescued the oxidative stress | ROS levels (DCFDA signal) upon Gln deprivation (8988T cells; Gln-free media supplemented 24 hr, 4 mM): rescued the oxidative stress
